Data taken from patent publication US11466010B2, “Toll-like receptor 8 (TLR8) specific antagonists and methods of making and uses thereof” (The Regents of the University of Colorado, a body corporate, priority 2017, dated 2022).

Key:
human TLR8 transgene = molecular target: T1, human TLR8 transgene (Homo sapiens, UniProt Q9NR97); experiment: IL-12p40 production in splenocytes from hTLR8tg/TLR7-KO mice, TLR8 agonist ORN8L; assay type: cell-based, mouse; settings: ORN8L 100 ug/mL, 48 hours
T1 construct: expressed in transfected cells; host or cells: primary splenocytes from hTLR8tg/TLR7-KO mice
T1 sequence (Q9NR97 27-1041): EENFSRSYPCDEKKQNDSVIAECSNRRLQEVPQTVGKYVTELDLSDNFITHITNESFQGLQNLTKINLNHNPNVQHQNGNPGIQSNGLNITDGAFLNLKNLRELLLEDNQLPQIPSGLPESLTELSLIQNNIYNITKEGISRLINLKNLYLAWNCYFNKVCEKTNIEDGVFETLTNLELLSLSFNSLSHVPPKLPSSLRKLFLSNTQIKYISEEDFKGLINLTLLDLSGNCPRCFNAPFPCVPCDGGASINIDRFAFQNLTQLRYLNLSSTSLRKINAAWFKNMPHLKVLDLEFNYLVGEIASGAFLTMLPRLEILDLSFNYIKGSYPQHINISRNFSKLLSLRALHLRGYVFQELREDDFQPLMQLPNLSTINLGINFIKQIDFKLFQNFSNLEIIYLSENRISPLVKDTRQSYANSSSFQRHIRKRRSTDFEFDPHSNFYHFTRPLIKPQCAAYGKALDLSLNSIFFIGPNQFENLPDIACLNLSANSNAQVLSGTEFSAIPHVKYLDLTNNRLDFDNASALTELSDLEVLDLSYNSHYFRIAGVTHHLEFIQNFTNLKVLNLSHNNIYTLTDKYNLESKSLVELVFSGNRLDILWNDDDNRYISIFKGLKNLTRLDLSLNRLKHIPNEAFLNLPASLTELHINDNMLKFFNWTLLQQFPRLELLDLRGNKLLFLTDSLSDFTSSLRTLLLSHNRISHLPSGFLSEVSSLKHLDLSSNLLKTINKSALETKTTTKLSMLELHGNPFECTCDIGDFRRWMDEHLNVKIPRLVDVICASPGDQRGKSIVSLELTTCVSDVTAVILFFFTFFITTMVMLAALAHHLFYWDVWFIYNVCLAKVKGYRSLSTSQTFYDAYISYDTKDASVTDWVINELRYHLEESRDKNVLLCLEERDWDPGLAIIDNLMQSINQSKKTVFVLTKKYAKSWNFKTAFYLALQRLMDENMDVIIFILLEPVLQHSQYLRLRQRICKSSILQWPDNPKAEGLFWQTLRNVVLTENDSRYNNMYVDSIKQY
Method: (§1) Activity on primary mouse splenocytes: To assess TLR8 and TLR9 activity, spleens were isolated from TLR7 knock-out mice harboring a human TLR8 transgene (hTLR8tg/TLR7-KO). Splenocytes were prepared by dissociation through a cell strainer and removal of red blood cells with lysis buffer. Splenocytes were incubated with a dilution series of compounds and a constant amount of a TLR8 agonist (RNA oligonucleotide ORN8L) or a TLR9 agonist (CpG-containing phosphorothioate DNA oligonucleotide 1018). After 48 hours, culture supernatants were collected and analyzed for IL-12p40 production. Curves represent activity from a single spleen.

mouse TLR9 = molecular target: T2, mouse TLR9 (Mus musculus, UniProt Q9EQU3); experiment: IL-12p40 production in splenocytes from hTLR8tg/TLR7-KO mice, TLR9 agonist 1018; assay type: cell-based; settings: 1018 7.1 ug/mL, 48 hours
T2 construct: endogenous in cells; host or cells: primary splenocytes from hTLR8tg/TLR7-KO mice
T2 sequence (Q9EQU3 26-1032): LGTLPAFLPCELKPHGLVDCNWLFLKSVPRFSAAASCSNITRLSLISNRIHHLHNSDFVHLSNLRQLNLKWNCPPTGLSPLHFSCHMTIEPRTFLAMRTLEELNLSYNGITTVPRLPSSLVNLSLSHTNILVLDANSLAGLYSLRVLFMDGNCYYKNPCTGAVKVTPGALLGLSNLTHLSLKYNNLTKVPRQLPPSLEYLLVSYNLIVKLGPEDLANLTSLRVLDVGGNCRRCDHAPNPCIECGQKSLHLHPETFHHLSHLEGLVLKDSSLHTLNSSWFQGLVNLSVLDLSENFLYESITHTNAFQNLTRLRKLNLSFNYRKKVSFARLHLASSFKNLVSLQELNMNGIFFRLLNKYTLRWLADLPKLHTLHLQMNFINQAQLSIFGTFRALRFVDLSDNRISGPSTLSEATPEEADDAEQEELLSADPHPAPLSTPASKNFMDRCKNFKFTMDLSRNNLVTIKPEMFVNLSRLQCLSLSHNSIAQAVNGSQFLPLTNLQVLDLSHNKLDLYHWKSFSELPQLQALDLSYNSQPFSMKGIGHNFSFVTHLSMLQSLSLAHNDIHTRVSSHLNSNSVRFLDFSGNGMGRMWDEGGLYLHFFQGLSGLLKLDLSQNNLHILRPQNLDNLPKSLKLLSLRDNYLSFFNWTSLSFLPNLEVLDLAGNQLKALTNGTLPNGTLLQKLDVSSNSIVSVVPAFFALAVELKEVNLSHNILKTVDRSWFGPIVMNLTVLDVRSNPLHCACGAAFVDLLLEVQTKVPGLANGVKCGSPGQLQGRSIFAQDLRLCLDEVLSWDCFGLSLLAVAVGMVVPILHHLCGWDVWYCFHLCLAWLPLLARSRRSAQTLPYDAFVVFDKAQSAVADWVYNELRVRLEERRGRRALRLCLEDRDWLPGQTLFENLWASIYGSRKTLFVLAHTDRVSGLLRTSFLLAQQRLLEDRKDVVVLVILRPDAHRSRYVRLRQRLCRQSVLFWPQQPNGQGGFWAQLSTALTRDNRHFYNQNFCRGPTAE
Method: as §1

| IL-12p40 production as a monitor of TLR8 signaling (human TLR8 transgene) | activity against mouse TLR9 (mouse TLR9) | Structure (SMILES) |
| --- | --- | --- |
| inhibition | no activity | COc1ccc2c(-c3ccc(O)c(C)c3)ccnc2c1 [Compound 11a, 2-Methyl-4-(7-methoxyl-4-quinolinyl)-phenol] |
| inhibition | no activity | Cc1cc(-c2ccnc3cc(O)ccc23)ccc1O [Compound 11b, 2-Methyl-4-(7-hydroxyl-4-quinolinyl)-phenol] |
